Source: patent US6531289B1, “Regulated gene expression in yeast and method of use” (Anadys Pharmaceuticals, Inc., priority 1997, dated 2003)

How the values were obtained:
CTY145 = conditions: CTY145, after 16 hours of growth
Experimental: (§1) For assaying the effects of copper ions on recombinant yeast strains, wild type and recombinant strains are grown in 5 ml of CSM media on a roller drum incubation apparatus at 30° C. for 18 to 20 hours. Cultures are diluted to an A600(absorbance of light at 600 nm) of about 0.02 in 5 ml CSM media without or with various concentrations of CuSO4 (10 μM, 50 μM, 100 μM, 250 μM, 1 mM and 2 mM) for 18 to 20 hours. The A600 of the various samples is read and recorded.
(§2) The copper sensitivity of yeast strain CTY145 was compared with that of ZMY60 by growing each strain in the presence of increasing amounts of added copper and measuring cell number at increasing times.

ZMY60 = conditions: ZMY60, after 16 hours of growth
Experimental: as §1, §2

[1] = tested on: ALG7/alg7 heterozygous diploid S. cerevisiae strain; conditions: Giaever et al.; cited from earlier work
ALG7 = conditions: Kukuruzinska et al. 1995; cited from earlier work
[2] = tested on: copper regulated CHS3 strain; test: Drug sensitivity profiling, 96 well copper sulfate x compound dilution plate; type: cell-based, S. cerevisiae; conditions: CHS3 copper regulated control, 48 hours at 37° C.
Experimental: (§3) In one embodiment, such drug sensitivity is analyzed utilizing the copper regulated strains of the invention according to the following non-limiting method. In a single 96 well assay plate, a serial dilution of copper sulfate is created from right to left. On the same plate a serial dilution of compound is created along the opposite axis to give the final compound and copper concentrations shown in FIG. 12. Each well is inoculated with 10^3 cells ml^−1. Growth is scored by eye after 48 hours incubation at 37° C. As the copper concentration is increased, the level of target expressed is reduced. Consequently, inhibition of growth should occur at a lower compound concentration (FIG. 13, panel a). […] (FIG. 13, panel c).
(§4) In a single 96 well assay plate, a serial dilution of copper sulfate was created from right to left. On the same plate a serial dilution of compound was created along the opposite axis to give the final compound and copper concentrations. Each well was inoculated with 10^3 cells/mL. Yeast cell growth was scored by eye after 48 hours incubation at 37° C.
(§5) Plates were setup as described above and inoculated with wild-type, copper regulated ALG7 and copper regulated CHS3 strains. CHS3 encodes chitin synthase and provides a second control. Following 48 hours incubation at 37° C., plates were examined to assess growth (FIG. 16).

[3] = tested on: copper regulated ALG7 strain; test: as above; type: cell-based, S. cerevisiae; conditions: ALG7 copper regulated cells, 48 hours at 37° C., growth scored by eye
Experimental: as §3, §4, §5

wild-type strain = test: as above; type: cell-based, S. cerevisiae; conditions: wild type control, 48 hours at 37° C.
Experimental: as §3, §4, §5

Compound | highest concentration of copper at which the growth rate was maintained (CTY145) [mM] | highest concentration of copper at which the log-phase growth rate was maintained unaffected (ZMY60) [μM] | sensitivity of ALG7/alg7 heterozygous diploid strain [1] | sensitivity to tunicamycin on downregulation of ALG7 expression (ALG7) | sensitivity to compound as the copper concentration was increased [2] | sensitivity to compound as the copper concentration was increased [3] | sensitivity to compound as the copper concentration was increased (wild-type strain)
O=S(=O)([O-])[O-].[Cu+2] [copper, copper sulfate] | 1 | 250 |  |  |  |  | 
tunicamycin |  |  | increased sensitivity | hypersensitivity | No increase in sensitivity | increased sensitivity | No increase in sensitivity
